The target in the test is T1, Dros GluCl (Drosophila melanogaster, UniProt Q94900, I27V/K241R).
T1 construct: Clone pDros GluCl was linearized by digestion with the restriction endonuclease SalI; expressed in transfected cells; host or cells: Xenopus laevis oocytes injected with in vitro transcribed Dros GluCl RNA
In words: cell-based. As to conditions: for Reversibility of activated current (in words): after washing drug from the bath, IVMPO4 observed for up to 10 minutes; for Sensitivity of oocytes injected with Dros GluCl RNA (in words): tested at concentrations of 1 mM or higher. The procedure:
Clone pDros GluCl was linearized by digestion with the restriction endonuclease SalI. In vitro RNA was synthesized from 0.5 μg of this plasmid in a reaction containing 40 mM Tris-HCl, pH 7.5; 6 mM MgCl2; 2 mM Spermidine; 10 mM NaCl; 10 mM DTT; 0.05 mg/ml Bovine Serum Albumin; 2 units/ul RNasin; 800 μM each ATP, CTP, and UTP; 200 μMGTP; 800 μM m7G(5')ppp(5')G; 5 μCi ^32 P-CTp; and 50 units T3 RNA polymerase in a final volume of 50 μl. The reaction was incubated for 3 hours at 37° C. followed by an additional 15 minutes incubation with 20 units RNase free DNase and extraction with phenol, phenol:chloroform, and chloroform. The RNA was precipitated with 1/10 volume 3M sodium acetate and 2.5 volumes 100% ethanol, stored at -20° C. for 16 hours, washed with 70% ethanol and resuspended in water at a concentration of 1 mg/ml for injection into Xenopus laevis oocytes.
Xenopus laevis oocytes were prepared and injected using standard methods previously described and known in the art [Arena, J. P., Liu, K. K., Paress, P. S. & Cully, D. F. Mol. Pharmacol. 40, 368-374 (1991); Arena, J. P., Liu, K. K., Paress, P. S., Schaeffer, J. M. & Cully, D. F. Mol. Brain Res. 15, 339-348 (1992)]. Adult female Xenopus laevis were anesthetized with 0.17% tricaine methanesulfonate and the ovaries were surgically removed and placed in a dish consisting of (mM): NaCl 82.5, KCl 2, MgCl2 1, CaCl2 1.8, HEPES 5 adjusted to pH 7.5 with NaOH (OR-2). Ovarian lobes were broken open, rinsed several times, and gently shaken in OR-2 containing 0.2% collagenase (Sigma, Type 1A) for 2-5 hours. When approximately 50% of the follicular layers were removed, Stage V and VI oocytes were selected and placed in media consisting of (mM): NaCl 86, KCl 2, MgCl2 1, CaCl2 1.8, HEPES 5, Na pyruvate 2.5, theophylline 0.5, gentamicin 0.1 adjusted to pH 7.5 with NaOH (ND-96) for 24-48 hours before injection. Oocytes were injected with 50 nl of Dros GluCl RNA (0.01-1 mg/ml). Control oocytes were injected with 50 nl of water. Oocytes were incubated for 2-10 days in ND-96 before recording. Incubations and collagenase digestion were carried out at 18° C.
Recordings were made at room temperature in standard frog saline consisting of (mM): NaCl 115, KCl 2, MgCl2 1, CaCl2 1.8, HEPES 10, adjusted to pH 7.5 with NaOH. Oocytes were voltage-clamped using a standard two microelectrode amplifier (Dagan 8500 or TEV-200, Minneapolis, Minn.). Pipettes were filled with 3M KCl and had resistances between 0.5-3.0 megaohms. A plexiglass recording chamber (volume 200 μl) was constantly perfused at a rate of 10 ml/min. The recording chamber was connected to ground with a Ag/AgCl electrode. Data were acquired and analyzed using PCLAMP with a TL-1 interface (Axon Instruments, Foster City, Calif.). Membrane current at a holding potential of -80 mV was recorded. The amplitude of drug-sensitive current was determined by subtracting the holding current at -80 mV from the peak current obtained in the presence of drug. Data were filtered at 30 Hz and sampled at 16.6 Hz. Current/voltage relationships (I/V) and reversal potentials (Erev) were determined using a 1-3 sec voltage ramp over the voltage range of -110 to +80 mV. For the ramps, data were filtered at 0.3-3 kHz and sampled at 160 Hz. Current in drug free solution was subtracted from current in the presence of drug to obtain drug-sensitive current/voltage relationships.

The values below come from US5693492A, “DNA encoding glutamate gated chloride channels” (priority 1995, dated 1997).

pEC50: −log10 of the molar value.

T1 sequence (Q94900 23-456 I27V/K241R/S345N): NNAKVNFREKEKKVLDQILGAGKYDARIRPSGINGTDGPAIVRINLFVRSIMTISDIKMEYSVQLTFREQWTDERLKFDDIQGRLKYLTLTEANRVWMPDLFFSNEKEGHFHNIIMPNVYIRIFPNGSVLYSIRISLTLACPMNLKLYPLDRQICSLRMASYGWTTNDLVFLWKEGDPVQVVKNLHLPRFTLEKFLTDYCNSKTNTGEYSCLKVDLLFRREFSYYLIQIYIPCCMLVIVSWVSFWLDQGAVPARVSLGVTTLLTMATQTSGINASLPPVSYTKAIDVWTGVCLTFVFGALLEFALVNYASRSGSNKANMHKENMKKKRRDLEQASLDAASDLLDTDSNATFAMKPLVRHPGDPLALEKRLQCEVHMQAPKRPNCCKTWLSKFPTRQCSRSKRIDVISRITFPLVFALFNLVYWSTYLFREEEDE

`C=C(C)C1C(=O)c2c3c(cc4c5c(n1c24)C1(C)C(CCC2C(C)(/C=C/C=C(\C)C(=O)O)C(O)CCC21C)C5)C1=CC(C)(C)OC(C)(C)C1C3O` (centres unmarked) [Compound-1]: the “Reversibility of activated current (in words)” value is reported as “slowly reversible”. In addition, the “Time for current to fully return to baseline” value (after Compound-1, oocytes expressing Dros GluCl) is recorded as “up to 10 minutes”. Also, where the note is “oocytes expressing Dros GluCl”, the “Activation of membrane current (in words)” value (from here on “Activation … (in words)”) is “directly activated membrane current”.

Consider `NCCCC(=O)O` [GABA], for which the “Sensitivity of oocytes injected with Dros GluCl RNA (in words)” value (“Sensitivity of oocytes injected” below) is on record as “insensitive”.

Regarding `CC[C@H](C)[C@H]1O[C@]2(CC[C@@H]1C)C[C@@H]1C[C@@H](C/C=C(\C)[C@H](O[C@H]3C[C@H](OC)[C@@H](O[C@H]4C[C@H](OC)[C@@H](OP(=O)(O)O)[C@H](C)O4)[C@H](C)O3)[C@@H](C)/C=C/C=C3\CO[C@@H]4[C@H](O)C(C)=C[C@@H](C(=O)O1)[C@]34O)O2` [IVMPO4], the “Reversibility of activated current (in words)” value was “irreversible”. Besides, where the note is “10 nM IVMPO4, oocytes expressing Dros GluCl”, the “Current activated, % of maximal current” value is 20-40%. Where the note is “oocytes expressing Dros GluCl”, the “Activation … (in words)” value was “directly activated current” and the “Concentration giving maximal activation of current” value turned out to be 1 µM.

As for `CN[C@H](CC(=O)O)C(=O)O` [N-methyl-D-aspartic acid], the “Sensitivity of oocytes injected” value is reported as “insensitive”.

Consider `N[C@@H](CC(=O)O)C(=O)O` [aspartate], for which the Emax at 1000 µM (read-out: % of maximal activation) came out at 8%.

For `N[C@@H](CCC(=O)O)C(=O)O` [glutamate], the pEC50 was 4.52.

For the compound `NCC(=O)O` [glycine], the “Sensitivity of oocytes injected” value was “insensitive”.

For `NCCc1c[nH]cn1` [histamine], the “Sensitivity of oocytes injected” value is “insensitive”.

For the compound `NC(C(=O)O)c1cc(O)no1` (centres unmarked) [ibotenate], under “oocytes expressing Dros GluCl”, the “Activation … (in words)” value is “reversibly activated” and the “Concentration giving maximal activation of current” value was determined as 100 µM.

In the case of `C=C(C)[C@H]1CN[C@H](C(=O)O)[C@H]1CC(=O)O` [kainate], the “Sensitivity of oocytes injected” value is on record as “insensitive”.

For the compound picrotoxin, where the note is “500 μM picrotoxin, oocytes expressing Dros GluCl”, the “Block of the current elicited with IVMPO4” value is 13%.

As a reminder, the pEC50 is the EC50 on a negative log10 scale, so that one unit is a factor of ten.
